Activity calls are given as the source filed them.
Columns and labels:
[1] = biological target: Malate dehydrogenase, cytoplasmic (Mus musculus) (UniProt P14152); assay: Binding affinity to mouse cytoplasmic malate dehydrogenase by chromatographic analysis
[2] = biological target: Short-chain specific acyl-CoA dehydrogenase, mitochondrial (Rattus norvegicus) (UniProt P15651); assay: Binding affinity to mitochondrial short-chain specific acyl-CoA dehydrogenase in Sprague-Dawley rat heart homogenate after 15 mins by chromatographic analysis; format: tissue-based
Chain of Short-chain specific acyl-CoA dehydrogenase, mitochondrial (Rattus norvegicus) (P15651 whole entry): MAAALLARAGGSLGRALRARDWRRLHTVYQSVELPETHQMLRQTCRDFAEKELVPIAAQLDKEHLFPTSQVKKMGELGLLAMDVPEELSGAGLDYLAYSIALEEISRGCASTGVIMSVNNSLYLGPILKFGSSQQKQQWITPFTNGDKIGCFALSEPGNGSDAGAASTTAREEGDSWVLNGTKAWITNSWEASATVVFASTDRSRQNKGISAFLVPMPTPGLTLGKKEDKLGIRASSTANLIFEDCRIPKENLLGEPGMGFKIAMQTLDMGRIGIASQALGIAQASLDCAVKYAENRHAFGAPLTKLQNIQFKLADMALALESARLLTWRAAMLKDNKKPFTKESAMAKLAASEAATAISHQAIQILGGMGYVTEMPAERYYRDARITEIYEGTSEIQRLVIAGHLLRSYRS

[3] = biological target: Dihydrolipoyllysine-residue succinyltransferase component of 2-oxoglutarate dehydrogenase complex, mitochondrial (Mus musculus) (UniProt Q9D2G2); assay: Binding affinity to mouse mitochondrial dihydrolipoyllysine-residue succinyltransferase component of 2-oxoglutarate dehydrogenase complex by chromatographic analysis
Chain of Dihydrolipoyllysine-residue succinyltransferase component of 2-oxoglutarate dehydrogenase complex, mitochondrial (Mus musculus) (Q9D2G2 whole entry, one chain of several): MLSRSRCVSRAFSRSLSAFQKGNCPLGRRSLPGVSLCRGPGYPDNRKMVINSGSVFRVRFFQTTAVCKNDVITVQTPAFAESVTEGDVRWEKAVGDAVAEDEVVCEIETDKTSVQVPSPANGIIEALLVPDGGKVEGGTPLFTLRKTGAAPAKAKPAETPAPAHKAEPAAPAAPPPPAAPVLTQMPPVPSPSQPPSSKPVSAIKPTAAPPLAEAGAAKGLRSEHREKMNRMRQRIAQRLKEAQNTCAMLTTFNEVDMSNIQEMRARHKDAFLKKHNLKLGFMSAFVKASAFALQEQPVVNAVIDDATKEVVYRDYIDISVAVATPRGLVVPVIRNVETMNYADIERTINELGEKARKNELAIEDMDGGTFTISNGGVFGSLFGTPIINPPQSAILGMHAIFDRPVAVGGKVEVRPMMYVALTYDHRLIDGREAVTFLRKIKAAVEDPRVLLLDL

[4] = biological target: Hydroxyacyl-coenzyme A dehydrogenase, mitochondrial (Rattus norvegicus) (UniProt Q9WVK7); assay: Binding affinity to mitochondrial short-chain L-3-hydroxyacyl-coenzyme A dehydrogenase in Sprague-Dawley rat heart homogenate after 15 mins by chromatographic analysis; format: tissue-based
[5] = biological target: Malate dehydrogenase, mitochondrial (Rattus norvegicus) (UniProt P04636); assay: Binding affinity to mitochondrial malate dehydrogenase in Sprague-Dawley rat heart homogenate after 15 mins by chromatographic analysis; format: tissue-based
Chain of Malate dehydrogenase, mitochondrial (Rattus norvegicus) (P04636 whole entry): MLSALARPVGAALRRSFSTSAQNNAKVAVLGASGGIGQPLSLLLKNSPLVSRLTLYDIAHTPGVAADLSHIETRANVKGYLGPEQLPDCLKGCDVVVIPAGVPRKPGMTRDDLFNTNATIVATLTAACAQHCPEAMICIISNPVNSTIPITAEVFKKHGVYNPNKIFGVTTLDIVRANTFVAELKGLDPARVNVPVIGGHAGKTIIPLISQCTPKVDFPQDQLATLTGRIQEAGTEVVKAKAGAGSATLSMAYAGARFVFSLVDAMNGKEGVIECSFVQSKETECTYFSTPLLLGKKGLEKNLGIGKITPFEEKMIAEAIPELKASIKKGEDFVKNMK

[6] = biological target: Glutamate dehydrogenase 1, mitochondrial (Rattus norvegicus) (UniProt P10860); assay: Binding affinity to mitochondrial glutamate dehydrogenase 1 in Sprague-Dawley rat heart homogenate after 15 mins by chromatographic analysis; format: tissue-based
[7] = biological target: 2-oxoglutarate dehydrogenase complex component E1 (Mus musculus) (UniProt Q60597); assay: Binding affinity to mouse mitochondrial 2-oxoglutarate dehydrogenase E1 component by chromatographic analysis
Chain of 2-oxoglutarate dehydrogenase complex component E1 (Mus musculus) (Q60597 whole entry, one chain of several): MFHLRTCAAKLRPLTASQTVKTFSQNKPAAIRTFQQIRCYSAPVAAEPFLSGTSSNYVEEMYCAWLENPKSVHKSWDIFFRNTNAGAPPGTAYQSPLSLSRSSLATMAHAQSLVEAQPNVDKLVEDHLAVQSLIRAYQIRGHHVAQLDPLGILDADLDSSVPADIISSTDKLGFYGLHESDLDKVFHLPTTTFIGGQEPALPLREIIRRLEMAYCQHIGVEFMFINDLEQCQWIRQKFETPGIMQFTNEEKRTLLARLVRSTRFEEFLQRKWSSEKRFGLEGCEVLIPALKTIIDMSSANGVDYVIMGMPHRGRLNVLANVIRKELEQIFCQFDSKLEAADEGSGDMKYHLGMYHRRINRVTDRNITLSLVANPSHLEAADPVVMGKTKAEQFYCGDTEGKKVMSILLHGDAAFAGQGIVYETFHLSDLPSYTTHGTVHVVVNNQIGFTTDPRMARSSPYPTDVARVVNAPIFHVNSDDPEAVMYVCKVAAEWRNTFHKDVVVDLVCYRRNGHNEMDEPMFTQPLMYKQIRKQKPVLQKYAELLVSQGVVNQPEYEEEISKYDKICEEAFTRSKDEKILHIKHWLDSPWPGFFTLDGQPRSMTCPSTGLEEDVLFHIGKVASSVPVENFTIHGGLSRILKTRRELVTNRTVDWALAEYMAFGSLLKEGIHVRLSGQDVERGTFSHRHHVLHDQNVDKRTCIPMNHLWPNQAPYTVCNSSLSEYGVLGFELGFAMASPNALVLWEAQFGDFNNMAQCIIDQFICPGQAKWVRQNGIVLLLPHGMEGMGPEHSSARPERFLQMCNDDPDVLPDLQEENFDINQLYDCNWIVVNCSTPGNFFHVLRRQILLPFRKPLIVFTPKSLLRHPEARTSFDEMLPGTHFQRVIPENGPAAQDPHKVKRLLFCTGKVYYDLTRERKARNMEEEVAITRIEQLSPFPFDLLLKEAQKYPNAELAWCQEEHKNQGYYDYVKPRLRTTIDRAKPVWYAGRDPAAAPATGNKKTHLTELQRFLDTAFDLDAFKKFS

[8] = biological target: T1, Dihydrolipoyl dehydrogenase, mitochondrial (Mus musculus) (UniProt O08749); assay: Binding affinity to mouse mitochondrial dihydrolipoyl dehydrogenase by chromatographic analysis relative to rosiglitazone
T1 sequence (whole entry): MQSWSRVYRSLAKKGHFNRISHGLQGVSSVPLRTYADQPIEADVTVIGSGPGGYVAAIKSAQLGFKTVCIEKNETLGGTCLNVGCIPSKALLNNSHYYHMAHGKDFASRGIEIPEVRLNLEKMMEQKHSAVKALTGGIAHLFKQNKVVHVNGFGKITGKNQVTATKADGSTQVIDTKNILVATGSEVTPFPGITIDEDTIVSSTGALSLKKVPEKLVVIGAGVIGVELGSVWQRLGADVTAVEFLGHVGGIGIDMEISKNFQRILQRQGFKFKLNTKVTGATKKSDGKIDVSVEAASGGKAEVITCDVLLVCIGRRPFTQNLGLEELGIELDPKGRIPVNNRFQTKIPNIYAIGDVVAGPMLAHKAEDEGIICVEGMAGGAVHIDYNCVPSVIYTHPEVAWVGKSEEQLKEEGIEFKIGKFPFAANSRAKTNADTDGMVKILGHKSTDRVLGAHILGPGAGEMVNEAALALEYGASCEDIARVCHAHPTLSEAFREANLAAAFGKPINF

[9] = biological target: T2, Long-chain specific acyl-CoA dehydrogenase, mitochondrial (Rattus norvegicus) (UniProt P15650); assay: Binding affinity to mitochondrial long-chain specific acyl-CoA dehydrogenase in Sprague-Dawley rat heart homogenate after 15 mins by chromatographic analysis relative to rosiglitazone; format: tissue-based
T2 sequence (whole entry): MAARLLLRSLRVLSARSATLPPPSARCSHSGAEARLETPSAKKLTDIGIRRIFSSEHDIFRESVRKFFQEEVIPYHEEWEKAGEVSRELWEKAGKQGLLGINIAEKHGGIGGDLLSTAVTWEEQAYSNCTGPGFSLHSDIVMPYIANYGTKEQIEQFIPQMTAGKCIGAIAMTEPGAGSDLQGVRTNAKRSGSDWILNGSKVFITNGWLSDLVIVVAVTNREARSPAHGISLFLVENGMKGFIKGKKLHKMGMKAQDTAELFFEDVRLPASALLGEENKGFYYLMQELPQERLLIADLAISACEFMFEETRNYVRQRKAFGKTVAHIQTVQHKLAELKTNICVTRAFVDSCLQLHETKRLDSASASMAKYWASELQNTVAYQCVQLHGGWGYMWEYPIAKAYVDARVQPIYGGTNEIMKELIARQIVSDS

[10] = biological target: L-lactate dehydrogenase B chain (Rattus norvegicus) (UniProt P42123); assay: Binding affinity to L-lactate dehydrogenase B chain in Sprague-Dawley rat heart homogenate after 15 mins by chromatographic analysis relative to rosiglitazone; format: tissue-based
[11] = biological target: Very long-chain specific acyl-CoA dehydrogenase, mitochondrial (Rattus norvegicus) (UniProt P45953); assay: Binding affinity to mitochondrial very long-chain specific acyl-CoA dehydrogenase in Sprague-Dawley rat heart homogenate after 15 mins by chromatographic analysis; format: tissue-based
Chain of Very long-chain specific acyl-CoA dehydrogenase, mitochondrial (Rattus norvegicus) (P45953 whole entry): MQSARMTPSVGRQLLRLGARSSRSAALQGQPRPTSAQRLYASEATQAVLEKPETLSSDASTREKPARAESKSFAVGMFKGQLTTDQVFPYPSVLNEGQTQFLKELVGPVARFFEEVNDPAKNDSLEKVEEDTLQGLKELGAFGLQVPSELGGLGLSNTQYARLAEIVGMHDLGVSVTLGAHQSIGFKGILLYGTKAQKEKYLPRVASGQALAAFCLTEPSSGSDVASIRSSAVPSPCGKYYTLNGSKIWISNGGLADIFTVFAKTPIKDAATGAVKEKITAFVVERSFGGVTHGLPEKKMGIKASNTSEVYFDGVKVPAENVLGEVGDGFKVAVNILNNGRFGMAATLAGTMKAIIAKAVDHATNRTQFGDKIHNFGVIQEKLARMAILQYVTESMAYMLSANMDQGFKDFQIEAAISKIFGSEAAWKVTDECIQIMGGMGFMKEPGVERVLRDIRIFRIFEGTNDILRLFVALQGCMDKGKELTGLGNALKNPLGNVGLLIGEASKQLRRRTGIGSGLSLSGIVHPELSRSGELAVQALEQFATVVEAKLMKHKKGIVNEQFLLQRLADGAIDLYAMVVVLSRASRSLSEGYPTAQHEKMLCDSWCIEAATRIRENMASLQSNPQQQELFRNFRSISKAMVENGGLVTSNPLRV

[12] = biological target: Isocitrate dehydrogenase [NADP], mitochondrial (Mus musculus) (UniProt P54071); assay: Binding affinity to mouse mitochondrial isocitrate dehydrogenase by chromatographic analysis
Chain of Isocitrate dehydrogenase [NADP], mitochondrial (Mus musculus) (P54071 whole entry): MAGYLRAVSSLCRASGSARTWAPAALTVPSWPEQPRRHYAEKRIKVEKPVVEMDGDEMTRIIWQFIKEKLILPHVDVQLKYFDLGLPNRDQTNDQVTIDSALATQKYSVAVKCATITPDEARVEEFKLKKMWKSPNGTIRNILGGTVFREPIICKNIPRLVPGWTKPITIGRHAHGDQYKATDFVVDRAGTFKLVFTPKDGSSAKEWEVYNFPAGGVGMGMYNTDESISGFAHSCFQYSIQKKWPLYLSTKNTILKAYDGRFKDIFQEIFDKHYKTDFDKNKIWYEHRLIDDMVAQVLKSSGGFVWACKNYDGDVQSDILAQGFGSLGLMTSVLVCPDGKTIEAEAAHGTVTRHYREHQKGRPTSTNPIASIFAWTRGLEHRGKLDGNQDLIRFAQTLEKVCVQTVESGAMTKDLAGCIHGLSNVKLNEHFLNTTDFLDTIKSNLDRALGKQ

[13] = biological target: Pyruvate dehydrogenase E1 component subunit alpha, somatic form, mitochondrial (Rattus norvegicus) (UniProt P26284); assay: Binding affinity to mitochondrial pyruvate dehydrogenase E1 component subunit alpha in Sprague-Dawley rat heart homogenate after 15 mins by chromatographic analysis; format: tissue-based
Chain of Pyruvate dehydrogenase E1 component subunit alpha, somatic form, mitochondrial (Rattus norvegicus) (P26284 whole entry): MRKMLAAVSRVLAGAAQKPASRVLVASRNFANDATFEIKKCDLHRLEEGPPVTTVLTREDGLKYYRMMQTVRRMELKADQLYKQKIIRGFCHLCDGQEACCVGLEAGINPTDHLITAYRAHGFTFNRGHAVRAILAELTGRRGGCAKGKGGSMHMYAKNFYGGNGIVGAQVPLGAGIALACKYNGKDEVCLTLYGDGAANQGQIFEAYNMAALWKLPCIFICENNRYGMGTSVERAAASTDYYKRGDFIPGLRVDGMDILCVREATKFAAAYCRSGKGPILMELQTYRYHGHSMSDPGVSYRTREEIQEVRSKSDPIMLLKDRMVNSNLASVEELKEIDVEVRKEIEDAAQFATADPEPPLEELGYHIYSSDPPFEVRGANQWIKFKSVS

[14] = biological target: L-lactate dehydrogenase A chain (Rattus norvegicus) (UniProt P04642); assay: Binding affinity to L-lactate dehydrogenase A chain in Sprague-Dawley rat heart homogenate after 15 mins by chromatographic analysis; format: tissue-based
[15] = biological target: Glyceraldehyde-3-phosphate dehydrogenase (Rattus norvegicus) (UniProt P04797); assay: Binding affinity to glyceraldehyde 3-phosphate dehydrogenase in Sprague-Dawley rat heart homogenate after 15 mins by chromatographic analysis; format: tissue-based
Chain of Glyceraldehyde-3-phosphate dehydrogenase (Rattus norvegicus) (P04797 whole entry): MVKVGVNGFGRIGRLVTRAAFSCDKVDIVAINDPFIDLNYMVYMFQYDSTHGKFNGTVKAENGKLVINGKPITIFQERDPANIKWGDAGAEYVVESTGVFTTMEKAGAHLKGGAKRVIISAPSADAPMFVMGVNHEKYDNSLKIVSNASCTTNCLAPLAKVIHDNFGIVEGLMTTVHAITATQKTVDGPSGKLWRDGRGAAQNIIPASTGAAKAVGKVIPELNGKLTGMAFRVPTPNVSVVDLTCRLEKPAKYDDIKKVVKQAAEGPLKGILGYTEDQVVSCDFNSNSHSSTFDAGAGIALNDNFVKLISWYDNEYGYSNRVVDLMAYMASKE

[16] = biological target: Medium-chain specific acyl-CoA dehydrogenase, mitochondrial (Rattus norvegicus) (UniProt P08503); assay: Binding affinity to mitochondrial medium-chain specific acyl-CoA dehydrogenase in Sprague-Dawley rat heart homogenate after 15 mins by chromatographic analysis; format: tissue-based
Chain of Medium-chain specific acyl-CoA dehydrogenase, mitochondrial (Rattus norvegicus) (P08503 whole entry): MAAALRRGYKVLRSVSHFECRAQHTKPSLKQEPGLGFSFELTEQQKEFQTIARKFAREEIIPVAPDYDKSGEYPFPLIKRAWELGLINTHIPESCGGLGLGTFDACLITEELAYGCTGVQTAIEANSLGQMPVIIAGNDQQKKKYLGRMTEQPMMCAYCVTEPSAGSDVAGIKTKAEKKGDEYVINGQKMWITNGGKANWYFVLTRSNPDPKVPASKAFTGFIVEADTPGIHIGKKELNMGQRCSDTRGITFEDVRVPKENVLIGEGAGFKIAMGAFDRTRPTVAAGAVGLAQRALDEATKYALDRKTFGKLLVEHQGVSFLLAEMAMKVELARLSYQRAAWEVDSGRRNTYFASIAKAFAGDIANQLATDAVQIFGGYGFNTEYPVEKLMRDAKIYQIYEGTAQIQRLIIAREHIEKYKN

Measured: Activity

Chain of Malate dehydrogenase, cytoplasmic (Mus musculus) (P14152 whole entry): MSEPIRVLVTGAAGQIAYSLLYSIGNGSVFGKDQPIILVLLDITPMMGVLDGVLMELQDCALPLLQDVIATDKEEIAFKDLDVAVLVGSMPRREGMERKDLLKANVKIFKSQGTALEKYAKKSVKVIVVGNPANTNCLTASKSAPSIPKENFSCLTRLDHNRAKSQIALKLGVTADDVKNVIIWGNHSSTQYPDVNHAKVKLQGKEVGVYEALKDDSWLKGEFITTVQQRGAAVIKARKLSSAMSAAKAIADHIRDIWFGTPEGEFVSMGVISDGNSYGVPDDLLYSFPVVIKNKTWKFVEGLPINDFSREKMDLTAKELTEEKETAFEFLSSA

O=C1NC(=O)C(Cc2ccc(O)cc2)S1 (stereo unspecified)
active: all assays above
